Measurements taken from paper PMC3750051, “A New Class of Rhomboid Protease Inhibitors Discovered by Activity-Based Fluorescence Polarization” (PLoS ONE, 2013).

Columns and labels:
E. coli rhomboid GlpG [1] = molecular target: T1, E. coli rhomboid GlpG (Escherichia coli, UniProt P09391); assay: biochemical
GlpG [2] = molecular target: T2, GlpG (Escherichia coli, UniProt P09391); type: biochemical, E. coli; conditions: 36 nM GlpG WT or S201A mutant, 100 µM compound, click reaction with TAMRA-azide
GlpG [3] = molecular target: T2, GlpG; assay: Gel-based competitive activity-based probe profiling (competitive ABPP); type: biochemical, E. coli; conditions: for blocking of EK2 labeling of GlpG (gel-based competitive ABPP): 100 µM compound, 45 nM GlpG, 1 µM probe EK2
Method: For the competitive activity-based probe profiling (competitive ABPP) experiment 45 nM of rhomboid in 20 µl of 50 mM HEPES (pH 7.4) containing 10% glycerol and 0.0125% DDM were incubated for 30 min at 37°C shaking with 100 µM of the compound or an equal volume of DMSO. Then either probe EK2 or FP-R was added to a final concentration of 1 µM and incubated for further 30 min at 37°C shaking in the dark. The labeling reaction was stopped with 4× SDS-sample buffer and 10 µl of the reaction (15 ng protein per lane) was applied to a 15% SDS-polyacrylamide gel and run for 1 h 10 min at 200V. The gel was visualized on a fluorescence scanner (Typhoon, Trio +).

bovine chymotrypsin [4] = molecular target: T3, bovine chymotrypsin (Bos taurus, UniProt P00766); assay: IC50 against chymotrypsin; type: biochemical; conditions: for IC50: bovine chymotrypsin, read-out: apparent IC50 against chymotrypsin; for potency against GlpG compared with trypsin and chymotrypsin: comparison of apparent IC50 values
GlpG [5] = molecular target: T2, GlpG; assay: Substrate cleavage of fluorescently labeled TatA (Providencia stuartii) by GlpG; type: biochemical, E. coli; conditions: 100 µM compound, 500 nM GlpG, 83 nM TAMRA-labeled TatA, overnight at 37°C
Method: The TatA protein from Providencia stuartii was used for generation of a fluorescence substrate. The substrate was constructed to include a His6-tag for purification as well as a LPRTG-motif for sortase-mediated protein labeling. It was expressed and purified as described above. For the labeling reaction, 33 µM of the unlabeled substrate, 50 µM sortase A from S. aureus and 500 µM of the label NH2-Ala-Ala-Ahx-Lys(TAMRA) were added together in labeling buffer (50 mM Tris, pH 7.5 containing 150 mM NaCl, 10 mM CaCl2 and 0.05% (w/v) DDM) and allowed to react o/n at 37°C in the dark. […] This allowed removal of sortase and unlabeled substrate by incubation of the labeling reaction with Ni-NTA agarose beads. The supernatant was applied to a ZEBA-spin desalting column (VWR; MW-cut-off 7 kDa) to remove excess label. 40 µL of a 500 nM rhomboid solution (in 50 mM HEPES (pH 7.4) containing 10% (v/v) glycerol and 0.0125% (w/v) DDM) were incubated for 30 min at 37°C shaking with 100 µM of the compounds or DMSO. Then fluorescently labeled rhomboid substrate TatA (Providencia stuartii) was added to a final concentration of 83 nM. The cleavage reaction was allowed to take place o/n at 37°C shaking in the dark and stopped by the addition of 4× SDS-sample buffer. 10 µl of each reaction (10 ng protein per lane) was applied to a 15% SDS-polyacrylamide gel and run for 1 h 10 min at 200V. The gel was visualized on a fluorescence scanner (Typhoon, Trio +).

bovine trypsin = molecular target: T4, bovine trypsin (Bos taurus, UniProt P00760); assay: IC50 against trypsin; type: biochemical; conditions: read-out: apparent IC50 against trypsin
T4 sequence (P00760 24-246): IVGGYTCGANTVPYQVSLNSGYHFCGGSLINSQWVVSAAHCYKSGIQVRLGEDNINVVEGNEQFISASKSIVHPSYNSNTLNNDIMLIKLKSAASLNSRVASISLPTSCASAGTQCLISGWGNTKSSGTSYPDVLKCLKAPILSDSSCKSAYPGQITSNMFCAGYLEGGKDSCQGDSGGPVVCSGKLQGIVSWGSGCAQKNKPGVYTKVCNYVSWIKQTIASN

GlpG from E. coli = GlpG from E. coli (Escherichia coli, UniProt P09391); type: biochemical; conditions: 1 µM probe, 45 nM GlpG WT or inactive S201A mutant, 30 min
E. coli rhomboid GlpG [6] = molecular target: T1, E. coli rhomboid GlpG; type: biochemical; conditions: 100 µM compound; for FluoPol signal, % of wild-type signal: 30 min preincubation, 75 nM FP-R, polarization at 4 h, GlpG WT = 100%, duplicate screens
bovine chymotrypsin [7] = molecular target: T3, bovine chymotrypsin; parameters: method as in PMID 23359682; conditions: cited from earlier work

T2 sequence (P09391 whole entry): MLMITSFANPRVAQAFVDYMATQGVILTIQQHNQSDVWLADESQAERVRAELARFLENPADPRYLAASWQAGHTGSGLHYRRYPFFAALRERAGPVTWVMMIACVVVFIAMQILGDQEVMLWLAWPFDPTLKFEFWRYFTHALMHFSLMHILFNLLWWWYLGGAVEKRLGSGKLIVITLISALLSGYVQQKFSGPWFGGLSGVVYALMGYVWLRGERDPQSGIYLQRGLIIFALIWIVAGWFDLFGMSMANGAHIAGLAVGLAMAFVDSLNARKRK
T1 sequence (P09391 whole entry): as above
Chain of GlpG from E. coli (P09391 whole entry): as above

| Compound | IC50 (E. coli rhomboid GlpG [1]) [µM] | blocking of EK2 labeling of GlpG (gel-based competitive ABPP) (GlpG [3]) | inhibition of substrate cleavage (GlpG [5]) | also measured |
| --- | --- | --- | --- | --- |
| C#CCCC[C@@H]1OC(=O)[C@H]1CCCC [Compound 31] | 26 ± 5.8 | able to block | able to block | tandem activity-based labeling of GlpG (fluorescent gel band) (GlpG [2]): Wild-type GlpG, but not the inactive S201A mutant was visualized; IC50 (bovine chymotrypsin [4]): > 50 µM; potency against GlpG compared with trypsin and chymotrypsin (bovine chymotrypsin [4]): higher potency against GlpG than against trypsin and chymotrypsin; IC50 (bovine trypsin): > 150 µM |
| Nc1ccc2c(Cl)c(OCCCCCc3ccccc3)oc(=O)c2c1 [Compound 2] | 0.75 ± 0.21 | able to block | able to block |  |
| Nc1ccc2c(Cl)c(OCCc3cn(Cc4ccccc4)nn3)oc(=O)c2c1 [Compound 27] | 3.1 ± 0.91 | able to block | able to block |  |
| CN(C)c1ccc2c(-c3ccc(C(=O)NCCCn4cc(CCOc5oc(=O)c6cc(N)ccc6c5Cl)nn4)cc3C(=O)[O-])c3ccc(=[N+](C)C)cc-3oc2c1 [EK2] |  |  |  | activity-based labeling of GlpG by the probe (GlpG from E. coli): labeled wild-type (WT) GlpG from E. coli, but not the inactive S201A mutant |
| O=c1oc(OCCBr)c(Cl)c2ccc([N+](=O)[O-])cc12 [Compound 12] | 8.4 ± 1.7 | able to block | able to block | FluoPol signal, % of wild-type signal (E. coli rhomboid GlpG [6]): slightly negative |
| CCCCOc1oc(=O)c2cc([N+](=O)[O-])ccc2c1Cl [Compound 11] | 5.5 ± 0.55 | able to block | able to block |  |
| C#CCCCC(=O)OCC1=CC2(CC=C(C)C)C(=O)OC2C1 (stereo not shown) [Compound 43] | 44 ± 10 | able to block | able to block | tandem activity-based labeling of GlpG (fluorescent gel band) (GlpG [2]): Wild-type GlpG, but not the inactive S201A mutant was visualized; IC50 (bovine chymotrypsin [4]): > 50 µM; potency against GlpG compared with trypsin and chymotrypsin (bovine chymotrypsin [4]): higher potency against GlpG than against trypsin and chymotrypsin; IC50 (bovine trypsin): > 150 µM |
| Nc1ccc2c(Cl)c(OCCc3ccccc3)oc(=O)c2c1 [S016, reference compound] | 1.1 ± 0.56 |  |  | potency against chymotrypsin compared with GlpG (bovine chymotrypsin [7]): more potent against chymotrypsin than against GlpG; prevention of probe labeling of GlpG WT by pre-inhibition (GlpG [3]; 100 µM inhibitor, 30 min, 1 µM probe EK2 or FP-R): Labeling was also prevented |
| CCCCOc1oc(=O)c2cc(N)ccc2c1Cl [Compound 3] | 0.4 ± 0.1 | able to block | able to block | FluoPol signal, % of wild-type signal (E. coli rhomboid GlpG [6]): slightly negative |
| O=c1oc(OCCCCCc2ccccc2)c(Cl)c2ccc([N+](=O)[O-])cc12 [Compound 10] | 5.2 ± 0.8 | able to block | able to block | FluoPol signal, % of wild-type signal (E. coli rhomboid GlpG [6]): slightly negative |
| vibralactone [reference compound] |  |  |  | activity against rhomboid (E. coli rhomboid GlpG [6]; FluoPol ABPP screen): inactive |
